The source of these data is paper PMC12281142, “A potent phenylalkylamine disrupts mycobacterial membrane bioenergetics and augments bactericidal activity of bedaquiline” (iScience, 2025).

One test has as its system M. bovis BCG. The format is cell-based, Mycobacterium bovis BCG.
For the next test, the system named is Mtb H37Rv. Particulars: drug sensitive and resistant strains of Mtb H37Rv; cited from earlier work.

With `CCCCCCCCC(C#N)(CCCN(C)CCc1ccc(OC)c(OC)c1)c1ccc(OC)c(OC)c1` (centres unmarked) [PhA2], in the test with M. bovis BCG, the spontaneous mutation frequency is reported as < 10^−9 /CFU.
Regarding `COc1ccc(CCN(C)CCCC(C#N)(c2ccc(OC)c(OC)c2)C(C)C)cc1OC` (centres unmarked) [VP, verapamil, reference compound], the “decrease in BDQ MIC caused by VP” value in the test on Mtb H37Rv is 20 fold.
